PubChem BioAssay (NCI)
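Results reflect a 48-hour exposure of cells in 96-well plates to compound at five concentrations. Abbreviation: GI50, concentration required for 50% inhibition of growth. TGI denotes the concentration required for complete inhibition of growth.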

Experiments:
Experiment in all cases: NCI-60 cell line screen, 48 h
MALME-3M melanoma = tested on: MALME-3M melanoma
SK-OV-3 ovarian = tested on: SK-OV-3 ovarian
K-562 leukemia = tested on: K-562 leukemia
HOP-62 NSCLC = tested on: HOP-62 NSCLC
CCRF-CEM leukemia = tested on: CCRF-CEM leukemia
HCC-2998 colon = tested on: HCC-2998 colon
UACC-257 melanoma = tested on: UACC-257 melanoma
RXF 393 renal = tested on: RXF 393 renal
UACC-62 melanoma = tested on: UACC-62 melanoma

Q: With COC1=CC(=O)C2C(C1=O)[C@@H]1c3ccccc3C[C@H]21 (stereo partly specified) as the compound, how does the TGI (MALME-3M melanoma) read?
A: Its TGI is over 100 µM.

Q: And the TGI (SK-OV-3 ovarian)?
A: The TGI was over 100 µM.

Q: What about the TGI (K-562 leukemia) of the same compound?
A: Its TGI is over 100 µM.

Q: What about the TGI (HOP-62 NSCLC) of the same compound?
A: Its TGI is over 100 µM.

Q: And the TGI (CCRF-CEM leukemia)?
A: Its TGI is over 100 µM.

Q: And the TGI (HCC-2998 colon)?
A: The TGI was over 100 µM.

Q: What about the TGI (UACC-257 melanoma) of the same compound?
A: Its TGI is over 100 µM.

Q: What about the TGI (RXF 393 renal) of the same compound?
A: The TGI was over 100 µM.

Q: What about the TGI (UACC-62 melanoma) of the same compound?
A: The TGI was over 100 µM.

Q: Which results are given for CC1CC2CC(=O)CC3(C1)C2CCCN3CCCO (stereo unspecified)?
A: TGI (MALME-3M melanoma): > 100 µM; TGI (SK-OV-3 ovarian): > 100 µM; TGI (K-562 leukemia): > 100 µM; TGI (HOP-62 NSCLC): > 100 µM; TGI (CCRF-CEM leukemia): > 100 µM; TGI (UACC-257 melanoma): > 100 µM; TGI (RXF 393 renal): > 100 µM; TGI (UACC-62 melanoma): > 100 µM

Q: Which results are given for CC(=O)N[C@@H]1C(O)CN2C(=O)C(=O)O[C@H](C(O)CO)[C@@H]12 (stereo partly specified)?
A: TGI (MALME-3M melanoma): > 100 µM; TGI (SK-OV-3 ovarian): > 100 µM; TGI (K-562 leukemia): > 100 µM; TGI (HOP-62 NSCLC): > 100 µM; TGI (CCRF-CEM leukemia): > 100 µM; TGI (HCC-2998 colon): > 100 µM; TGI (UACC-257 melanoma): > 100 µM; TGI (RXF 393 renal): > 100 µM

Q: CC1CC#CCOC(=O)CCCC1=O (stereo unspecified) was tested. Which TGI (SK-OV-3 ovarian) did it give?
A: The TGI was over 100 µM.

Q: What about the TGI (K-562 leukemia) of the same compound?
A: The TGI was over 100 µM.

Q: What about the TGI (HOP-62 NSCLC) of the same compound?
A: Its TGI is over 100 µM.

Q: What about the TGI (CCRF-CEM leukemia) of the same compound?
A: Its TGI is over 100 µM.

Q: And the TGI (HCC-2998 colon)?
A: The TGI was over 100 µM.

Q: What about the TGI (RXF 393 renal) of the same compound?
A: Its TGI is over 100 µM.

Q: And the TGI (UACC-62 melanoma)?
A: Its TGI is over 100 µM.

Q: COc1ccccc1N=C(N)N/N=C/c1c[nH]c2ccccc12 was tested. Which TGI (MALME-3M melanoma) did it give?
A: The TGI was 8.19 µM.

Q: And the TGI (SK-OV-3 ovarian)?
A: Its TGI is 31.7 µM.

Q: And the TGI (K-562 leukemia)?
A: Its TGI is 11.6 µM.

Q: What about the TGI (HOP-62 NSCLC) of the same compound?
A: The TGI was 30.2 µM.

Q: And the TGI (CCRF-CEM leukemia)?
A: Its TGI is 31.2 µM.

Q: What about the TGI (HCC-2998 colon) of the same compound?
A: The TGI was 6.27 µM.

Q: And the TGI (UACC-257 melanoma)?
A: The TGI was 11.7 µM.

Q: And the TGI (RXF 393 renal)?
A: Its TGI is 27.3 µM.

Q: What about the TGI (UACC-62 melanoma) of the same compound?
A: Its TGI is 27 µM.

Q: What does the source list for C1C[OH+]CC[OH+]CCNCC[OH+]CC[OH+]CCN1.[Cl-].[Pt+4]?
A: GI50 (MALME-3M melanoma): > 100 µM; TGI (MALME-3M melanoma): > 100 µM; GI50 (SK-OV-3 ovarian): > 100 µM; TGI (SK-OV-3 ovarian): > 100 µM; GI50 (K-562 leukemia): > 100 µM; TGI (K-562 leukemia): > 100 µM; GI50 (HOP-62 NSCLC): > 100 µM; TGI (HOP-62 NSCLC): > 100 µM; GI50 (CCRF-CEM leukemia): 30.1 µM; TGI (CCRF-CEM leukemia): > 100 µM; GI50 (HCC-2998 colon): > 100 µM; TGI (HCC-2998 colon): > 100 µM; GI50 (UACC-257 melanoma): > 100 µM; TGI (UACC-257 melanoma): > 100 µM; GI50 (UACC-62 melanoma): 91.9 µM; TGI (UACC-62 melanoma): > 100 µM

Q: For COC[C@@H](N=CN1CCc2cc(OC)c(OC)cc2[C@@H]1C)C(C)(C)C, which TGI (MALME-3M melanoma) is on record?
A: The TGI was over 100 µM.

Q: What about the TGI (SK-OV-3 ovarian) of the same compound?
A: The TGI was over 100 µM.

Q: What about the TGI (K-562 leukemia) of the same compound?
A: Its TGI is over 100 µM.

Q: What about the TGI (HOP-62 NSCLC) of the same compound?
A: The TGI was over 100 µM.

Q: And the TGI (CCRF-CEM leukemia)?
A: Its TGI is over 100 µM.

Q: What about the TGI (UACC-257 melanoma) of the same compound?
A: Its TGI is over 100 µM.

Q: And the TGI (RXF 393 renal)?
A: Its TGI is over 100 µM.

Q: What about the TGI (UACC-62 melanoma) of the same compound?
A: The TGI was over 100 µM.

Q: How did the TGI (MALME-3M melanoma) turn out when NCCCOCC(=O)O was run?
A: Its TGI is over 100 µM.

Q: And the TGI (SK-OV-3 ovarian)?
A: Its TGI is over 100 µM.

Q: And the TGI (K-562 leukemia)?
A: Its TGI is over 100 µM.

Q: What about the TGI (HCC-2998 colon) of the same compound?
A: Its TGI is over 100 µM.

Q: What about the TGI (UACC-257 melanoma) of the same compound?
A: Its TGI is over 100 µM.

Q: And the TGI (RXF 393 renal)?
A: The TGI was over 100 µM.

Q: What about the TGI (UACC-62 melanoma) of the same compound?
A: Its TGI is over 100 µM.

Q: CC(=O)Nc1ccc(C(=O)NN2C(=O)C(Cl)C2c2ccc([N+](=O)[O-])cc2)cc1 (stereo unspecified) was tested. Which TGI (MALME-3M melanoma) did it give?
A: Its TGI is over 100 µM.

Q: What about the TGI (SK-OV-3 ovarian) of the same compound?
A: The TGI was over 100 µM.

Q: What about the TGI (K-562 leukemia) of the same compound?
A: The TGI was over 100 µM.

Q: And the TGI (HOP-62 NSCLC)?
A: The TGI was over 100 µM.

Q: And the TGI (CCRF-CEM leukemia)?
A: The TGI was over 100 µM.

Q: What about the TGI (UACC-257 melanoma) of the same compound?
A: The TGI was over 100 µM.

Q: What about the TGI (RXF 393 renal) of the same compound?
A: Its TGI is over 100 µM.

Q: And the TGI (UACC-62 melanoma)?
A: The TGI was over 100 µM.

Q: How did the TGI (MALME-3M melanoma) turn out when C=CC1[C@H]2COC(C)(C)O[C@@H]2CC(=O)C1(C)C (stereo partly specified) was run?
A: Its TGI is over 100 µM.

Q: And the TGI (HOP-62 NSCLC)?
A: Its TGI is over 100 µM.

Q: What about the TGI (HCC-2998 colon) of the same compound?
A: The TGI was over 100 µM.

Q: What about the TGI (UACC-257 melanoma) of the same compound?
A: Its TGI is over 100 µM.

Q: And the TGI (RXF 393 renal)?
A: The TGI was over 100 µM.

Q: Which TGI (MALME-3M melanoma) does the source give for O=C1C=CC=CC2CC=C[C@@H](O)C12 (stereo partly specified) here?
A: The TGI was 46.8 µM.

Q: What about the TGI (SK-OV-3 ovarian) of the same compound?
A: Its TGI is over 100 µM.

Q: And the TGI (K-562 leukemia)?
A: Its TGI is over 100 µM.

Q: What about the TGI (HOP-62 NSCLC) of the same compound?
A: Its TGI is over 100 µM.

Q: What about the TGI (CCRF-CEM leukemia) of the same compound?
A: Its TGI is over 100 µM.

Q: And the TGI (UACC-257 melanoma)?
A: The TGI was 29.7 µM.

Q: And the TGI (UACC-62 melanoma)?
A: The TGI was 38.5 µM.

Q: Which TGI (MALME-3M melanoma) does the source give for CC(C)C1(O)C(c2ccccc2)=C(c2ccccc2)C(c2ccccc2)=C1c1ccccc1 here?
A: The TGI was 30.9 µM.

Q: And the TGI (SK-OV-3 ovarian)?
A: Its TGI is over 100 µM.

Q: What about the TGI (K-562 leukemia) of the same compound?
A: Its TGI is over 100 µM.

Q: And the TGI (HOP-62 NSCLC)?
A: The TGI was 30.1 µM.

Q: What about the TGI (CCRF-CEM leukemia) of the same compound?
A: Its TGI is over 100 µM.

Q: What about the TGI (HCC-2998 colon) of the same compound?
A: The TGI was 30.4 µM.

Q: What about the TGI (UACC-257 melanoma) of the same compound?
A: The TGI was 26.2 µM.

Q: What about the TGI (RXF 393 renal) of the same compound?
A: The TGI was 13.3 µM.

Q: And the TGI (UACC-62 melanoma)?
A: Its TGI is 20.9 µM.
